{
  "source": "paper PMC3958311",
  "about": "(EMBO Molecular Medicine, 2014)",
  "key": {"M. tuberculosis H37Rv [1]": {"test_system": "M. tuberculosis H37Rv", "assay": "MIC by resazurin reduction microplate assay (REMA)", "format": "cell-based, Mycobacterium tuberculosis", "settings": "Mycobacterium tuberculosis; M. tuberculosis H37Rv; read-out: MIC99"}, "C. diphtheriae DSM 44123": {"test_system": "C. diphtheriae DSM 44123", "assay": "MIC99 by REMA", "format": "cell-based, Corynebacterium diphtheriae", "settings": "Corynebacterium diphtheriae, DSM44123; C. diphtheriae DSM 44123; read-out: MIC99"}, "C. glutamicum ATCC 13032": {"test_system": "C. glutamicum ATCC 13032", "assay": "MIC99 by REMA", "format": "cell-based, Corynebacterium glutamicum", "settings": "Corynebacterium glutamicum, ATCC13032; C. glutamicum ATCC 13032; read-out: MIC99"}, "M. abscessus 2005-0524": {"test_system": "M. abscessus 2005-0524", "assay": "MIC99 by REMA", "format": "cell-based", "settings": "Mycobacteroides abscessus, 20050524; M. abscessus 2005-0524; read-out: MIC99"}, "M. avium ATCC 15769": {"test_system": "M. avium ATCC 15769", "assay": "MIC99 by REMA", "format": "cell-based", "settings": "Mycobacterium avium, ATCC15769; M. avium ATCC 15769; read-out: MIC99"}, "M. bolletii 1999-0888": {"test_system": "M. bolletii 1999-0888", "assay": "MIC99 by REMA", "format": "cell-based", "settings": "Mycobacteroides abscessus, 19990888; M. bolletii 1999-0888; read-out: MIC99"}, "M. bovis BCG Pasteur": {"test_system": "M. bovis BCG Pasteur", "assay": "microbe, parasite or virus in culture", "format": "cell-based, Mycobacterium bovis BCG", "settings": "Mycobacterium tuberculosis variant bovis BCG, BCG"}, "M. bovis BCG BN2": {"test_system": "M. bovis BCG BN2", "format": "cell-based, Mycobacterium bovis BCG"}, "M. marinum Strain M [2]": {"test_system": "M. marinum Strain M", "assay": "MIC99 by REMA", "format": "cell-based, Mycobacterium marinum", "settings": "Mycobacterium marinum; M. marinum Strain M; read-out: MIC99"}, "M. massiliense 2005-0484": {"test_system": "M. massiliense 2005-0484", "assay": "MIC99 by REMA", "format": "cell-based", "settings": "Mycobacteroides abscessus, 20050484; M. massiliense 2005-0484; read-out: MIC99"}, "M. smegmatis mc^2155": {"test_system": "M. smegmatis mc^2155", "assay": "MIC99 by REMA", "format": "cell-based, Mycobacterium smegmatis", "settings": "Mycolicibacterium smegmatis; M. smegmatis mc^2155; read-out: MIC99"}, "M. smegmatis GM22": {"test_system": "M. smegmatis GM22", "assay": "microbe, parasite or virus in culture", "format": "cell-based", "settings": "Mycolicibacterium smegmatis"}, "M. tuberculosis MDR_CHUV": {"test_system": "M. tuberculosis MDR_CHUV", "assay": "MIC99 by REMA", "format": "cell-based, Mycobacterium tuberculosis", "settings": "Mycobacterium tuberculosis; read-out: MIC99"}, "M. vaccae ATCC 15483": {"test_system": "M. vaccae ATCC 15483", "assay": "MIC99 by REMA", "format": "cell-based", "settings": "Mycolicibacterium vaccae, ATCC15483; M. vaccae ATCC 15483; read-out: MIC99"}, "[3]": {"target": "T1, purified recombinant M. smegmatis NfnB (Mycolicibacterium smegmatis, UniProt A0R6D0)", "T1 construct": "made in house", "T1 sequence (A0R6D0 whole entry)": "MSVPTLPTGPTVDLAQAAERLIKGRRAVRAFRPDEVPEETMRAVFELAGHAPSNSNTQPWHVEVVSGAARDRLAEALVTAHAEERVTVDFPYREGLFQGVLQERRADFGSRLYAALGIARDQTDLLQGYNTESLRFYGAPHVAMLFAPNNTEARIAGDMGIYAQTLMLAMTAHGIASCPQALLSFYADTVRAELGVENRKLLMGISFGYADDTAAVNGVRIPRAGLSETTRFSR", "assay": "NfnB-mediated nitroreduction followed by LC-MS", "format": "biochemical"}, "M. tuberculosis DprE1": {"target": "M. tuberculosis DprE1 (Mycobacterium tuberculosis, UniProt P9WJF1)", "sequence (P9WJF1 whole entry, looked up)": "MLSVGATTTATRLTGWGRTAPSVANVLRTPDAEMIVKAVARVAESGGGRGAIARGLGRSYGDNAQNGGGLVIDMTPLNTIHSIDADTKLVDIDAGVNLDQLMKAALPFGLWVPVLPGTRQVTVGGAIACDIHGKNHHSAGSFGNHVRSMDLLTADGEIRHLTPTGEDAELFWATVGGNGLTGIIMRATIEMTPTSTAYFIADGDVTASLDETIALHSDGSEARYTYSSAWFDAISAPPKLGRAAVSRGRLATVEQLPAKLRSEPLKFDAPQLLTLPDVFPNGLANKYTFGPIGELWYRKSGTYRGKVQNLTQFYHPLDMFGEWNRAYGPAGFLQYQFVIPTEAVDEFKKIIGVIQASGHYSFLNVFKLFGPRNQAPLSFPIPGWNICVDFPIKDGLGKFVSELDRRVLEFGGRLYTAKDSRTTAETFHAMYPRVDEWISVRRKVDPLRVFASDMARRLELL", "assay": "DprE1 inhibition, two step peroxidase-coupled assay with Amplex Red", "format": "biochemical", "settings": "5 min incubation, 5 μM enzyme, 200 μM FPR"}, "M. marinum strain M [4]": {"test_system": "M. marinum strain M", "format": "in vivo, zebrafish (Danio rerio)", "settings": "5 days treatment"}, "zebrafish embryos": {"test_system": "zebrafish embryos", "format": "in vivo, zebrafish (Danio rerio)", "protocol": "On examination of infected zebrafish embryos treated with BTZ043 it was observed that the compound affected embryo development (Fig 6A–G) especially at concentrations above 25 nM. […] These defects were also observed when uninfected embryos were exposed to BTZ043.\nFigure 6 Effect of BTZ043 on M. marinum infected zebrafish embryo development. A–D M. marinum infected zebrafish embryos were treated with BTZ043 for 5 days at the concentrations indicated and photographed using a Leica DFC420C camera. The M strain was used for infection. E–F Images of the notochord from untreated and treated zebrafish, arrows indicate developmental abnormalities. G Analysis of zebrafish embryos displaying developmental abnormalities treated with BTZ043 (BTZ) or PBTZ169 (PBTZ) at the concentrations indicated."}, "M. tuberculosis H37Rv [5]": {"test_system": "M. tuberculosis H37Rv", "format": "in vivo, BALB/c mice"}, "in vivo": {"assay": "in vivo", "protocol": "Table S5. Principal pharmacokinetic properties1\n1 See Figure S5 for primary data.\nCompound levels were measured in serum from individual female mice (3/time point) that had received a single dose of 25 mg/kg. Maximum concentration (Cmax); area under the curve (AUC); apparent clearance.\nComparative pharmacokinetic analysis. After receiving a single dose\n(25 mg/kg) of PBTZ169 or BTZ043 by gavage, groups of three female mice were sacrificed at the times indicated, blood was obtained by cardiac puncture and the drug levels in serum determined by LC-MS/MS technique (limit of quantification 10 μg/L)."}, "[6]": {"settings": "mouse"}, "[7]": {"settings": "human"}, "in vitro [8]": {"assay": "in vitro", "settings": "mouse, microsomes"}, "in vitro [9]": {"assay": "in vitro", "settings": "human, microsomes"}, "[10]": {"settings": "female, mouse, in vivo, po, 25 mg/kg"}},
  "note": "Read-outs that look alike come from different tables or passages of the source.",
  "data": [
    {"smiles": "C[C@H]1COC2(CCN(c3nc(=O)c4cc(C(F)(F)F)cc([N+](=O)[O-])c4s3)CC2)O1", "note": "[BTZ043, 2-[(2S)-2-methyl-1,4-dioxa-8-azaspiro[4.5]dec-8-yl]-8-nitro-6-(trifluoromethyl)-4H-1,3-benzothia-zin-4-one]", "values": [
      {"measurement": "MIC99", "setting": "M. tuberculosis H37Rv [1]", "value": 0.001, "unit": "µg/mL"},
      {"measurement": "MIC99", "setting": "C. diphtheriae DSM 44123", "value": 0.06, "unit": "µg/mL"},
      {"measurement": "MIC99", "setting": "C. glutamicum ATCC 13032", "value": 0.063, "unit": "µg/mL"},
      {"measurement": "MIC99", "setting": "M. abscessus 2005-0524", "value": "> 100", "unit": "µg/mL"},
      {"measurement": "MIC99", "setting": "M. avium ATCC 15769", "value": "> 100", "unit": "µg/mL"},
      {"measurement": "MIC99", "setting": "M. bolletii 1999-0888", "value": "> 100", "unit": "µg/mL"},
      {"measurement": "MIC99", "setting": "M. bovis BCG Pasteur", "value": 0.001, "unit": "µg/mL"},
      {"measurement": "MIC99", "setting": "M. bovis BCG BN2", "value": ">100", "unit": "µg/mL"},
      {"measurement": "fold increased resistance conferred by the Cys387Ser mutation in DprE1", "setting": "M. bovis BCG BN2", "value": "> 10 000 fold"},
      {"measurement": "MIC99", "setting": "M. marinum Strain M [2]", "value": 0.0007, "unit": "µg/mL"},
      {"measurement": "MIC99", "setting": "M. massiliense 2005-0484", "value": "> 100", "unit": "µg/mL"},
      {"measurement": "MIC99", "setting": "M. smegmatis mc^2155", "value": 0.001, "unit": "µg/mL"},
      {"measurement": "MIC", "setting": "M. smegmatis GM22; GM22, read-out: MIC for GM22", "value": 0.05, "unit": "µg/mL"},
      {"measurement": "MIC99", "setting": "M. smegmatis GM22; M. smegmatis GM22, overproduces NfnB nitroreductase, read-out: MIC99", "value": 0.031, "unit": "µg/mL"},
      {"measurement": "MIC99", "setting": "M. tuberculosis MDR_CHUV", "value": 0.002, "unit": "µg/mL"},
      {"measurement": "MIC99", "setting": "M. vaccae ATCC 15483", "value": "> 100", "unit": "µg/mL"},
      {"measurement": "NfnB-mediated reduction, species found by LC-MS", "setting": "[3]", "value": "almost entirely converted to its hydroxylamino analogue"},
      {"measurement": "concentration giving full inhibition of DprE1", "setting": "M. tuberculosis DprE1", "value": 20, "unit": "µM"},
      {"measurement": "effect on the infection in zebrafish embryos", "setting": "M. marinum strain M [4]; 5 nM", "value": "no significant effect"},
      {"measurement": "bacterial burden in infected zebrafish embryos (fluorescence)", "setting": "M. marinum strain M [4]; 25 or 50 nM", "value": "almost no bacteria were present"},
      {"measurement": "embryos affected (notochord defects, shortened Anterior-Posterior axis)", "setting": "zebrafish embryos; 25 nM", "value": 60.4, "unit": "%"},
      {"measurement": "embryos affected (notochord defects, shortened Anterior-Posterior axis)", "setting": "zebrafish embryos; 50 nM", "value": 76.7, "unit": "%"},
      {"measurement": "bacterial burden in the lungs lower than untreated control", "setting": "M. tuberculosis H37Rv [5]; 50 mg/kg per day, 28 days", "value": 0.6, "unit": "logs"},
      {"measurement": "bacterial burden in the spleens lower than untreated control", "setting": "M. tuberculosis H37Rv [5]; 50 mg/kg per day, 28 days", "value": 1.7, "unit": "logs"},
      {"measurement": "reduction of bacterial burden in the lungs and spleens", "setting": "M. tuberculosis H37Rv [5]; dose escalation study, 50 mg/kg, four weeks", "value": 1, "unit": "log"},
      {"measurement": "Cmax", "setting": "in vivo; [10]", "value": 1920, "unit": "ng/mL"},
      {"measurement": "half-life", "setting": "in vivo; [10]", "value": 1.67, "unit": "h"},
      {"measurement": "k el", "setting": "in vivo; [10]", "value": 0.000116, "unit": "s⁻¹"},
      {"measurement": "AUC", "setting": "in vivo; serum, female mice, single dose 25 mg/kg by gavage, non-compartmental", "value": 259829, "unit": "µg·min/L"},
      {"measurement": "TD50", "setting": "HepG2 human cell line; HepG2", "value": 5, "unit": "µg/mL"},
      {"measurement": "TD50", "setting": "HepG2 human cell line; HepG2, REMA, triplicate, toxic dose inhibiting 50% of the population", "value": 5, "unit": "µg/mL"},
      {"measurement": "TD99", "setting": "HepG2 human cell line; HepG2, REMA, triplicate, toxic dose inhibiting 99% of the population", "value": 25, "unit": "µg/mL"},
      {"measurement": "selectivity index", "setting": "HepG2 human cell line; HepG2 cytotoxicity relative to MIC", "value": "> 10 000"},
      {"measurement": "clearance on incubation with microsomes (in words)", "setting": "[6]", "value": "medium clearance values"},
      {"measurement": "clearance on incubation with microsomes (in words)", "setting": "[7]", "value": "medium clearance values"},
      {"measurement": "microsomal CLint", "setting": "in vitro [8]", "value": 12.2, "unit": "µL/min/mg"},
      {"measurement": "microsomal CLint", "setting": "in vitro [9]", "value": 16, "unit": "µL/min/mg"}
    ]}
  ]
}
